Test results: ChEMBL document CHEMBL1127232, “Synthesis and vasorelaxant activity of N-imino-2-(benzopyran-4-yl)pyridine K+ channel openers” (Bioorg Med Chem Lett, 1994)
pEC50: −log10 of the molar value.

What was measured:
Rattus norvegicus [1] = organism: Rattus norvegicus; assay: Intrinsic activity in rat aorta was determined; type: functional
Rattus norvegicus [2] = organism: Rattus norvegicus; assay: Negative logarithm of the molar concentration required to relax rat aorta precontracted with 30 mM KCL by 50% of intrinsic activity; type: functional

Q: Which results are given for `N#Cc1ccc2c(c1)C(c1cccc[n+]1[O-])=CC(CF)(CF)O2`?
A: Intrinsic activity (Rattus norvegicus [1]): 71.1%; pEC50 (Rattus norvegicus [2]): 7.78

Q: What does the source list for `O=[N+]([O-])c1ccc2c(c1)C(c1cccc[n+]1[O-])=CC(CF)(CF)O2`?
A: Intrinsic activity (Rattus norvegicus [1]): 66.3%; pEC50 (Rattus norvegicus [2]): 8.76

Q: Which results are given for `O=C([N-][n+]1ccccc1C1=CC(CF)(CF)Oc2ccc([N+](=O)[O-])cc21)Nc1ccccc1`?
A: Intrinsic activity (Rattus norvegicus [1]): 89.5%; pEC50 (Rattus norvegicus [2]): 5.04

Q: What does the source list for `N#C[N-][n+]1ccccc1C1=CC(CF)(CF)Oc2ccc(C(F)(F)F)cc21`?
A: Intrinsic activity (Rattus norvegicus [1]): 62.3%; pEC50 (Rattus norvegicus [2]): 8.02

Q: `CC1(C)C=C(c2cccc[n+]2[N-]C#N)c2cc(C#N)ccc2O1` was tested. Which Intrinsic activity (Rattus norvegicus [1]) did it give?
A: Its Intrinsic activity is 63.2%.

Q: And the pEC50 (Rattus norvegicus [2])?
A: The pEC50 was 7.01.

Q: With `N#C[N-][n+]1ccccc1C1=CC(CF)(CF)Oc2ccc([N+](=O)[O-])cc21` as the molecule, how does the Intrinsic activity (Rattus norvegicus [1]) read?
A: The Intrinsic activity was 72.7%.

Q: And the pEC50 (Rattus norvegicus [2])?
A: The pEC50 was 8.34.

Q: Which results are given for `O=[N+]([O-])[N-][n+]1ccccc1C1=CC(CF)(CF)Oc2ccc([N+](=O)[O-])cc21`?
A: Intrinsic activity (Rattus norvegicus [1]): 98.5%; pEC50 (Rattus norvegicus [2]): 6.00

Q: How did the pEC50 (Rattus norvegicus [2]) turn out when `O=C([N-][n+]1ccccc1C1=CC(CF)(CF)Oc2ccc([N+](=O)[O-])cc21)c1ccccc1` was run?
A: The pEC50 was < 5.00.

Q: Which results are given for `N#C[N-][n+]1ccccc1C1=CC(CF)(CF)Oc2ccc(C(F)(F)C(F)(F)F)cc21`?
A: Intrinsic activity (Rattus norvegicus [1]): 71.9%; pEC50 (Rattus norvegicus [2]): 8.53

Q: Which Intrinsic activity (Rattus norvegicus [1]) does the source give for `N#C[N-][n+]1ccccc1C1=CC(CF)(CF)Oc2ccc(C(F)(F)C(F)(F)C(F)(F)F)cc21` here?
A: The Intrinsic activity was 74.6%.

Q: What about the pEC50 (Rattus norvegicus [2]) of the same molecule?
A: The pEC50 was 7.75.

Q: With `CC1(C)C=C(c2cccc[n+]2[O-])c2cc(C#N)ccc2O1` as the molecule, how does the Intrinsic activity (Rattus norvegicus [1]) read?
A: Its Intrinsic activity is 78.2%.

Q: And the pEC50 (Rattus norvegicus [2])?
A: The pEC50 was 7.61.

Q: `N#C[N-][n+]1ccccc1C1=CC(CF)(CF)Oc2ccc(C#N)cc21` was tested. Which Intrinsic activity (Rattus norvegicus [1]) did it give?
A: Its Intrinsic activity is 76.9%.

Q: What about the pEC50 (Rattus norvegicus [2]) of the same molecule?
A: The pEC50 was 7.29.

Q: How did the pEC50 (Rattus norvegicus [2]) turn out when `CC(=O)[N-][n+]1ccccc1C1=CC(CF)(CF)Oc2ccc([N+](=O)[O-])cc21` was run?
A: The pEC50 was < 5.00.

Q: Which results are given for `CS(=O)(=O)[N-][n+]1ccccc1C1=CC(CF)(CF)Oc2ccc([N+](=O)[O-])cc21`?
A: Intrinsic activity (Rattus norvegicus [1]): 74.2%; pEC50 (Rattus norvegicus [2]): 5.52

Q: Which Intrinsic activity (Rattus norvegicus [1]) does the source give for `CC1(C)Oc2ccc(C#N)cc2[C@@H](N2CCCC2=O)[C@@H]1O` [LEVCROMAKALIM] here?
A: The Intrinsic activity was 72.5%.

Q: What about the pEC50 (Rattus norvegicus [2]) of the same molecule?
A: The pEC50 was 6.79.
